Measurements reported in ChEMBL document CHEMBL3431459, “Roche carnitine palmitoyltransferase modulator screening data (supplementary data associated with the publication CHEMBL2216752)”.
Values after ≈ are worked out from the molar mass of the structure shown.

Columns and labels:
[1] = molecular target: T1, Carnitine O-palmitoyltransferase 1, liver isoform (Homo sapiens, UniProt P50416); experiment: (§1) SUPPLEMENTARY: Inhibition of Carnitine palmitoyltransferase 1, liver isoform
T1 sequence (P50416 whole entry): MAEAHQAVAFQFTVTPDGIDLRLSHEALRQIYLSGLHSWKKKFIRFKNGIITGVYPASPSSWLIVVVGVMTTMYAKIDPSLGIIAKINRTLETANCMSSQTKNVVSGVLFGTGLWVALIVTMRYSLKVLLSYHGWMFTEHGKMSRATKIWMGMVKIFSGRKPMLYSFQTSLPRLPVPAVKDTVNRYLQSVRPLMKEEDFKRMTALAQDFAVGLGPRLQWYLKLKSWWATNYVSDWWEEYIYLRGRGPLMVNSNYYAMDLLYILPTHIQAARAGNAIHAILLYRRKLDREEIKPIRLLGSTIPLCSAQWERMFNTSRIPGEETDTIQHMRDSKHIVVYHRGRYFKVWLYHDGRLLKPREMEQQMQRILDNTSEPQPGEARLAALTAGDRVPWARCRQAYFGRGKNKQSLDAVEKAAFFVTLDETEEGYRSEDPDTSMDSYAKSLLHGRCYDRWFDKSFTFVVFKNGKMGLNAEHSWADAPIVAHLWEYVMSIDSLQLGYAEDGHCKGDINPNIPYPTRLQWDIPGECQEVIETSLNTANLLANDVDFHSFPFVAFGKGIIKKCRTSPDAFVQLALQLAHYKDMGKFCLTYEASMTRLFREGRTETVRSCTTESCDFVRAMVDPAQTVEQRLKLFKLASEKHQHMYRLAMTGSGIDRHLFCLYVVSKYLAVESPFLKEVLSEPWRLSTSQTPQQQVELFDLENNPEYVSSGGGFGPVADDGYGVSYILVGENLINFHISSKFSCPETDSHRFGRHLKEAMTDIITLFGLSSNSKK

[2] = molecular target: T2, Carnitine O-palmitoyltransferase 1, liver isoform (Rattus norvegicus, UniProt P32198); experiment: as §1
T2 sequence (P32198 whole entry): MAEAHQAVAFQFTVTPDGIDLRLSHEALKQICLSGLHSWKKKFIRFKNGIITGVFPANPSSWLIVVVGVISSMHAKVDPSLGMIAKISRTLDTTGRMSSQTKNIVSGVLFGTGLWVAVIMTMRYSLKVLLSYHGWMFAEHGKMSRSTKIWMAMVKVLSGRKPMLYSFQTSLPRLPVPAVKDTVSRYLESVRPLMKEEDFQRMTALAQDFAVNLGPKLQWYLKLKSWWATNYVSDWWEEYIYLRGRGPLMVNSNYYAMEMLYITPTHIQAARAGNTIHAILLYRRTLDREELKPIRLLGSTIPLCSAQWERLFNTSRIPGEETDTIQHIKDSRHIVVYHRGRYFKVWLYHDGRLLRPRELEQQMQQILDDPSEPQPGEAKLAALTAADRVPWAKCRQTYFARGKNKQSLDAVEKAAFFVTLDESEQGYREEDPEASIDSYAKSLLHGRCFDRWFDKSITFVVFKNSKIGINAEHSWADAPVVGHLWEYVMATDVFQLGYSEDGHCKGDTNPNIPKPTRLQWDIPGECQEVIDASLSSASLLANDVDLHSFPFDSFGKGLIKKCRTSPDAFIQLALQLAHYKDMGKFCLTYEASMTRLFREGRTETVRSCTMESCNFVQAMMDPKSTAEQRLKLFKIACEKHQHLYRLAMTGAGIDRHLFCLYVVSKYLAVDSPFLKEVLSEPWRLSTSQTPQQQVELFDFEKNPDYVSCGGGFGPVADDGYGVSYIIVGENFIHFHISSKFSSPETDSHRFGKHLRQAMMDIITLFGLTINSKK

[3] = molecular target: T3, Carnitine O-palmitoyltransferase 1, muscle isoform (Homo sapiens, UniProt Q92523); experiment: SUPPLEMENTARY: Inhibition of Carnitine palmitoyltransferase 1, muscle isoform; parameters: species or system Muscle tissue
T3 sequence (Q92523 whole entry): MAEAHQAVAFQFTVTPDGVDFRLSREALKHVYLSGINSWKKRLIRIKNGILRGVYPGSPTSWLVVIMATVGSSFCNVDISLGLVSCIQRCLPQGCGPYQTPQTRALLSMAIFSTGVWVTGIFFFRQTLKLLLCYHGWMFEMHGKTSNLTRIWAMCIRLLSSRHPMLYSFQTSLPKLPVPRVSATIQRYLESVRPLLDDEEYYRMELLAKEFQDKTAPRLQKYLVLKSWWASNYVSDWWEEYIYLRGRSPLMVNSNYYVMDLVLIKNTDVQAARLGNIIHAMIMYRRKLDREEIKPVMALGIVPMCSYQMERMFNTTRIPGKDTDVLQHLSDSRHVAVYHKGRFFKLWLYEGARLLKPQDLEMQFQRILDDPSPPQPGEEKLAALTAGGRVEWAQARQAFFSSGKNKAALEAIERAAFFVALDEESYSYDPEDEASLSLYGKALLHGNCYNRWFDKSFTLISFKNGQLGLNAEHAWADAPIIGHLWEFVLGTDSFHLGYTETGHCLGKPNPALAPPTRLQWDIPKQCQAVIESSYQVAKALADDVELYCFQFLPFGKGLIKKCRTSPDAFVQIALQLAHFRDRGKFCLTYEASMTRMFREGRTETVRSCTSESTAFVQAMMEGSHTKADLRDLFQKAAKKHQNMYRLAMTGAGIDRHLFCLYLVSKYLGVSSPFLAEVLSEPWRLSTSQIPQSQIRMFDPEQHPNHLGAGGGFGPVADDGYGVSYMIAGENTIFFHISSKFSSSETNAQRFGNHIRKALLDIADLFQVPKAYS

[4] = SUPPLEMENTARY: Lipophilicity (log D) Determination by high-throughput shake-flask; assay type: physicochemical; conditions: octanol/water
[5] = SUPPLEMENTARY: Lyophilisation Solubility Assay (LYSA); assay type: physicochemical; conditions: read-out: Kinetic_solubility
[6] = molecular target: T4, Carnitine O-palmitoyltransferase 2, mitochondrial (Rattus norvegicus, UniProt P18886); experiment: (§2) SUPPLEMENTARY: Inhibition of Carnitine palmitoyltransferase 2
T4 sequence (P18886 whole entry): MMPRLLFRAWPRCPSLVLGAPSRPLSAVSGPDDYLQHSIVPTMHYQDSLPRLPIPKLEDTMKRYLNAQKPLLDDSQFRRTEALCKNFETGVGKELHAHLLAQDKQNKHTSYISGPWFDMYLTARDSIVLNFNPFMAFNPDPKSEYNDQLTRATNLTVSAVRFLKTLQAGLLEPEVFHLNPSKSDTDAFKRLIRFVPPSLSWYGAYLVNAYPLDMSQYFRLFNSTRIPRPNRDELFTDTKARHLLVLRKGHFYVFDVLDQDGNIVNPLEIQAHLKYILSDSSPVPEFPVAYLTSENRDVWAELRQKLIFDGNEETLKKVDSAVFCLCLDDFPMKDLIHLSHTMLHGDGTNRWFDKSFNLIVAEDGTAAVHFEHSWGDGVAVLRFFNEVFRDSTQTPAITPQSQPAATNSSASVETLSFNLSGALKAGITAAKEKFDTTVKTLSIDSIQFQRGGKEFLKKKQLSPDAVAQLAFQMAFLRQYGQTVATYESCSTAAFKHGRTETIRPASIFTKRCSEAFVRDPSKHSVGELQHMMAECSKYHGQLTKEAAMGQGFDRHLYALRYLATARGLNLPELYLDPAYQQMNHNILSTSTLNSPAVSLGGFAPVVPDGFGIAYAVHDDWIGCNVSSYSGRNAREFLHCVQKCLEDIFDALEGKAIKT

[7] = molecular target: T5, Carnitine O-palmitoyltransferase 2, mitochondrial (Homo sapiens, UniProt P23786); experiment: as §2
T5 sequence (P23786 whole entry): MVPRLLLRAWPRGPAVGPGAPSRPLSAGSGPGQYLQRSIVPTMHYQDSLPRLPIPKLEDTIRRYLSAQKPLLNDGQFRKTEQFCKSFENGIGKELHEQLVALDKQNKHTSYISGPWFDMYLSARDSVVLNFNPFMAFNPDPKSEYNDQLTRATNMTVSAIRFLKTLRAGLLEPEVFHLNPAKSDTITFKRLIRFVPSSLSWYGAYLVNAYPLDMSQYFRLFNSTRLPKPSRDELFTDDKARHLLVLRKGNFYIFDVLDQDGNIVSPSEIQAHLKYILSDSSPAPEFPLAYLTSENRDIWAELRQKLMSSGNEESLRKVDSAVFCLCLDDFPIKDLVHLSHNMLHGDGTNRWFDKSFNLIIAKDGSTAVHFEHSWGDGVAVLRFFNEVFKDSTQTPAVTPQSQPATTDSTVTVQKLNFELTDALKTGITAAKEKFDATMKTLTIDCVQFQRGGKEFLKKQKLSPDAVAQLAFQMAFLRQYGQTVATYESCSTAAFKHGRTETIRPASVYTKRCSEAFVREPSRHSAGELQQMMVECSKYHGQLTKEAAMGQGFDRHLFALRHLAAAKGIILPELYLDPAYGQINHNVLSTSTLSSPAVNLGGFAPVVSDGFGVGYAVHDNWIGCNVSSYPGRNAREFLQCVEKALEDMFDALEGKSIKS

[8] = SUPPLEMENTARY: PAMPA permeability assay; assay type: physicochemical; conditions: read-out: Permeability

IC50 [1] [nM]	IC50 [2] [nM]	IC50 [3] [nM]	logD [4]	solubility kinetic [5] [µg/mL]	IC50 [6] [nM]	IC50 [7] [nM]	Papp [8] [×10⁻⁶ cm/s]	SMILES
79.5	375	> 100000	2.43	121 (≈ 277 µM)	> 100000	45900	2.67	CC(=O)Nc1cc(-c2n[nH]c([C@H]3CCCCN3C(=O)COc3ccccc3)n2)ccc1F
188	146	62700	2.57	52 (≈ 142 µM)	> 100000	> 100000	6.09	Cc1cc(-c2nc([C@H]3CCCCN3C(=O)COc3ccccc3)no2)[nH]n1
511	555	> 100000	2.65	129 (≈ 339 µM)	> 100000	> 100000	5.2	Cc1cc(-c2n[nH]c([C@H]3CCCCN3C(=O)COc3ccccc3)n2)n(C)n1
40.8	84.5	> 100000	> 3	< 1	> 100000	> 100000	1.26	COc1ccc(Cl)cc1S(=O)(=O)N1CCOc2ccc(C(=O)Nc3ccccc3)cc21
7.1	3	9020	0.56	251 (≈ 489 µM)	> 100000	> 100000	0.39	COc1ccc(Cl)cc1S(=O)(=O)c1cn(CCC(=O)O)c2ccc(C(=O)Nc3ccccc3)cc12
190	228	> 100000	> 3	11 (≈ 27.6 µM)	> 100000	> 100000	0.962	O=C(COc1ccccc1)N1CCCC[C@@H]1c1nc(-c2ccc(Cl)cc2)no1
226	4510	> 100000	-1.07	397 (≈ 972 µM)	> 100000	96300	0.07	O=C(O)c1cncc(-c2noc([C@H]3CCCCN3C(=O)COc3ccccc3)n2)c1

The remaining lines, values behind:

SMILES	IC50 [1] [nM]	IC50 [2] [nM]	IC50 [3] [nM]	logD [4]	solubility kinetic [5] [µg/mL]	IC50 [6] [nM]	IC50 [7] [nM]	Papp [8] [×10⁻⁶ cm/s]
Cc1cc(C)cc(S(=O)(=O)N2CC[S+]([O-])c3ccc(C(=O)Nc4ccc(C(=O)O)cc4)cc32)c1 (configuration not stated)	59.8	57.5	37000	0.1	2 (≈ 4.01 µM)	> 100000	1860	0.49
O=C(O)Cc1csc(NC(=O)c2ccc3c(c2)N(S(=O)(=O)c2cccc(Cl)c2)CCO3)n1	22.6	11.5	618	0.37	54 (≈ 109 µM)	> 100000	> 100000	2.91
CCCN(c1cc(C(=O)Nc2ccc(CC(=O)O)cc2)cc2c1OCO2)S(=O)(=O)c1cc(Cl)ccc1OC	191	184	955	0.87	517 (≈ 922 µM)	> 100000	> 100000	3.45
COCCN(c1cc(C(=O)Nc2nc(CC(=O)O)cs2)cc2c1OCO2)S(=O)(=O)c1cc(Cl)ccc1OC	252	154	3560	2.57	238 (≈ 408 µM)	> 100000	74400	1.16
Cc1cc(C)cc(S(=O)(=O)c2nn(CCC(=O)O)c3ccc(C(=O)Nc4ccccc4)cc23)c1	27	22.2	> 100000	1.94	8 (≈ 16.8 µM)	> 100000	> 100000	0.91
CCOC(=O)C1CN(S(=O)(=O)c2cc(Cl)ccc2OC)c2cc(C(=O)Nc3cccc(F)c3)ccc2O1 (configuration not stated)	221	339	> 100000	3.58	< 1	> 100000	> 100000	1.31
Cn1cc(S(=O)(=O)c2cccc(Cl)c2)c2cc(C(=O)Nc3ccc(C(=O)O)cc3)ccc21	18.8	11.2	920	2.54	3 (≈ 6.4 µM)	2500	1500	1.01
